In PubChem BioAssay (NCI) one finds GI50 and TGI data, which are given here for five compounds.

Each structure is given as a SMILES string. Where “and” joins values, the source holds several entries; their conditions need not be identical. Equal entries are not always repeated.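 The compound was tested at five concentrations on cells cultured in 96-well plates, with a 48-hour exposure period. GI50: concentration for 50% inhibition of growth. TGI denotes the concentration required for complete inhibition of growth.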

Some test systems named below: SK-MEL-2 melanoma; DU-145 prostate; COLO 205 colon; M14 melanoma; HS 578T breast; UACC-257 melanoma; 786-0 renal; OVCAR-8 ovarian; SN12C renal; RXF 393 renal.
Common to all, as to assay: NCI anticancer screen, dose series, 48 h

For the compound `O=C(Cn1ccnc1[N+](=O)[O-])N(CCO)CCO`, the GI50 in the assay with SK-MEL-2 melanoma is more than 1250 µM; with COLO 205 colon, more than 250 µM; in the assay on UACC-257 melanoma, more than 1250 µM; in the assay with OVCAR-8 ovarian, more than 1250 µM; in the assay with SN12C renal, more than 1250 µM; in the assay with RXF 393 renal, more than 1250 µM. Further, the TGI in the assay on SK-MEL-2 melanoma is 250 µM and > 1250 µM; in the assay on DU-145 prostate it was more than 250 µM; with COLO 205 colon, more than 1250 µM; with M14 melanoma, more than 250 µM; with HS 578T breast it was more than 250 µM; in the assay on UACC-257 melanoma it was more than 1250 µM. Also, the TGI in the assay with 786-0 renal is more than 250 µM; in the assay on OVCAR-8 ovarian, more than 1250 µM; in the assay on SN12C renal, more than 1250 µM; with RXF 393 renal it was more than 1250 µM.
As for `O=C1Nc2ccc(F)c3c(OCCO)cc(-c4ccc[nH]4)c1c23`, the GI50 was 1.4 µM with SK-MEL-2 melanoma; 1970 nM with DU-145 prostate; 1.33 µM with COLO 205 colon; 1400 nM in the assay with M14 melanoma; 1060 nM in the assay on HS 578T breast; 4.94 µM with UACC-257 melanoma. Also, the GI50 with 786-0 renal is 2440 nM; in the assay on OVCAR-8 ovarian, 2.76 µM; in the assay with SN12C renal, 1.11 µM; in the assay on RXF 393 renal, 0.987 µM. For the same compound, the TGI in the assay with SK-MEL-2 melanoma is 6.51 µM; with DU-145 prostate, 10.3 µM; with COLO 205 colon, 5.79 µM; with M14 melanoma it was 12.4 µM; with HS 578T breast, 10.2 µM; with UACC-257 melanoma, 17.9 µM. Further, the TGI in the assay with 786-0 renal was 9.26 µM; in the assay on OVCAR-8 ovarian, 18.3 µM; in the assay with SN12C renal, 9.83 µM; in the assay with RXF 393 renal it was 4.98 µM.
Turning to `C[C@@H]1O[C@@H](O[C@H]2C[C@@H](O)[C@]3(CO)C4C(CC[C@]3(O)C2)[C@@]2(O)CC[C@H](C3=CC(=O)OC3)[C@@]2(C)C[C@H]4O)[C@H](O)[C@H](O)[C@H]1O` (stereo partly specified), the GI50 is 0.0655 µM in the assay on SK-MEL-2 melanoma; 10.4 nM in the assay with DU-145 prostate; 0.0747 µM in the assay on COLO 205 colon; 85.5 nM in the assay with M14 melanoma; 18.2 nM in the assay with HS 578T breast; 0.0626 µM with UACC-257 melanoma. The GI50 with 786-0 renal is 18 nM; with OVCAR-8 ovarian, 0.0189 µM; with SN12C renal, 0.0178 µM; in the assay on RXF 393 renal it was 0.0115 µM. Besides, the TGI was found to be 0.17 µM in the assay with SK-MEL-2 melanoma; 0.02 µM in the assay on DU-145 prostate; 0.151 µM in the assay on COLO 205 colon; 0.166 µM with M14 melanoma; 4.32 µM with HS 578T breast; 0.129 µM in the assay with UACC-257 melanoma. Moreover, the TGI with 786-0 renal amounted to 0.0687 µM; in the assay on OVCAR-8 ovarian it was 0.0691 µM; with SN12C renal, 0.0844 µM; in the assay on RXF 393 renal it was 0.0291 µM.
Consider `CCOc1ccc(NC(=O)Nc2cc(C(C)C)ccc2C)cc1`, for which the GI50 is 18 µM in the assay on SK-MEL-2 melanoma; 9570 nM in the assay on DU-145 prostate; 15.3 µM in the assay with COLO 205 colon; 21900 nM with M14 melanoma; 2320 nM in the assay on HS 578T breast; 8.83 µM in the assay on UACC-257 melanoma. Also, the GI50 is 2640 nM in the assay on 786-0 renal, 3.67 µM in the assay on OVCAR-8 ovarian, 5.15 µM with SN12C renal and 1.64 µM in the assay with RXF 393 renal. In addition, the TGI is 55.6 µM in the assay on SK-MEL-2 melanoma; more than 58.4 µM with DU-145 prostate; more than 100 µM in the assay on COLO 205 colon; more than 100 µM in the assay on M14 melanoma; 7.06 µM in the assay on HS 578T breast; 44.9 µM in the assay with UACC-257 melanoma. The TGI with 786-0 renal was determined as 6.72 µM; with OVCAR-8 ovarian, 14.8 µM; in the assay on SN12C renal, 24 µM; in the assay on RXF 393 renal, 4.9 µM.
As to `CO/N=C(\c1ccccc1)c1cnn(-c2ccccc2)c1N`, the GI50 was more than 25 µM in the assay with SK-MEL-2 melanoma; more than 25000 nM with DU-145 prostate; more than 25 µM in the assay on COLO 205 colon; more than 25000 nM in the assay on M14 melanoma; more than 25000 nM in the assay on HS 578T breast; more than 25 µM in the assay with UACC-257 melanoma. The GI50 with 786-0 renal is more than 25000 nM; in the assay with OVCAR-8 ovarian, more than 25 µM; in the assay on SN12C renal, more than 25 µM; in the assay on RXF 393 renal, more than 25 µM. Besides, the TGI with SK-MEL-2 melanoma, in the assay with DU-145 prostate, in the assay with COLO 205 colon, with M14 melanoma, in the assay with HS 578T breast and in the assay with UACC-257 melanoma was more than 25 µM in each case. The TGI in the assay on 786-0 renal, in the assay on OVCAR-8 ovarian, in the assay on SN12C renal and with RXF 393 renal was more than 25 µM in each case.
